Data: US20210106742A1, “NON-HEMOLYTIC COMPOSITIONS AND METHODS OF USE FOR RECOVERING DISEASE CAUSING TOXIC CONSTITUENTS IN THE BLOOD” (ACTORIUS INNOVATIONS AND RESEARCH CO, priority 2019, published 2021)
Read-outs that look alike come from different tables or passages of the source.

Tests used:
[1] = test system: Red Blood Cells from whole human blood; assay: Red Blood Cells hemolysis assay
Procedure: Red Blood Cells from whole human blood were separated by centrifugation at room temperature and washed in sodium chloride solution two times and resuspended in phosphate buffer saline with pH 7.4. The resuspended red blood cells were incubated with the composition to be evaluated for 30 minutes at 37° C. The samples were centrifuged and the supernatant collected and analyzed for hemolysis using UV spectroscopy. The percentage of hemolysis was estimated against a negative control phosphate buffer saline with pH 7.4 and positive control 0.5% Triton-X100 prepared in phosphate-buffered saline with pH 7.4.
Red Blood Cells from whole human blood (5 milliliter) were separated by centrifugation (500×g, 5 minutes) at room temperature and washed in 150 mM sodium chloride (NaCl) solution two times and resuspended in a total final volume of 5 milliliter with phosphate buffered saline with pH 7.4. The resuspended red blood cells were incubated by mixing with materials listed in Table 1 for 30 minutes at 37° C. The samples were centrifuged (500×g, 5 minutes, room temperature), and supernatants were collected and analyzed for hemolysis using UV spectroscopy at spectra 540 nm. The percentage hemolysis was estimated against a negative control phosphate buffered saline with pH 7.4 and positive control 0.5% Triton-X100.

[2] = test system: circulating tumor cells (CTC); assay: Destruction of circulating tumor cells using cisplatin; format: cell-based, human; conditions: CTCs isolated with composition of example 33; 30 micrograms Cisplatin in 100 microliter PBS pH 7.4, two hours
Procedure: (§1) 1.5 ml blood of a cancer patient was incubated with 300 micrograms of composition of example 33 for 5 minutes. CTCs were isolated using magnetic separation and cells were fixed with absolute ethanol and immuno-stained with cytokeratin (CK-18), leucocyte common antigen (CD-45) and with nuclear-staining probe 4′,6-diamidino-2-phenylindole (DAPI). Captured cells were imaged under fluorescence microscope, wherein 3 CTCs were isolated.
as §1, with “incubated for two hours with 30 micrograms Cisplatin in 100 microliter phosphate buffered saline, pH 7.4, and the composition was” for “cells were”, “(DAPI) and” for “(DAPI). Captured cells were”, “microscope.” for “microscope, wherein 3 CTCs were isolated.”

For `CCO[Si](CCCN)(OCC)OCC` [(3-Aminopropyl)triethoxysilane], the “Percentage Hemolysis” value ([1]; sample amount 0.5%, 30 minutes at 37° C.) was 0% and the “Percentage Hemolysis” value ([1]; sample amount 10%, 30 minutes at 37° C.) was 36%.
`N.N.[Cl][Pt][Cl]` [Cisplatin] was tested, and the “CTCs observed after incubation with the drug” value [2] was “No CTCs were observed”.
For Triton-X100, the “Percentage Hemolysis” value [1] was 100%.
